Measurements from patent publication US10010560B2, “Small molecule HSP70 inhibitors” (THE TRUSTEES OF THE UNIVERSITY OF PENNSYLVANIA, priority 2014, dated 2018).
Where “and” joins values, the source holds several entries; their conditions need not be identical. Identical values can stand only once.

Assays:
[1] = test system: melanoma tumor cell line WM989; experiment: Combination with BRAF inhibitor Vemurafenib, viability; type: cell-based, human
Description: FIG. 6 is a line graph illustrating that PET-16 synergizes with the BRAF inhibitor Vemurafenib to reduce the viability of the melanoma tumor cell line WM989 (▪). WM989 cells treated singularly with Vemurafenib are depicted by (●). No synergy was detected between Vemurafenib and PES-Cl.

ATP-HSP70 (WT) = target: T1, ATP-HSP70 (WT) (Homo sapiens, UniProt P0DMV8, E110D); experiment: ITC binding to ATP-bound full-length HSP70; conditions: wild-type full-length ATP-bound HSP70
T1 construct: Full-length recombinant proteins of HSP70 (aa 1-641) as well as DnaK (aa 1-638); His6 (N); made in house; host or cells: E. coli BL21 Star (DE3)
Description: The human stress-inducible HSP70 (residues 1-641 or 386-616 of SEQ ID NO: 2) and E. coli DnaK (residues 1-638, 389-607, or 393-507 of SEQ ID NO: 4) were cloned into the pET25 vector (EMD Millipore Chemicals, Inc., Billerica, Mass., USA) between the NdeI and XhoI restriction sites. The full-length HSP70 and DnaK mutants were constructed by PCR-based site-directed mutagenesis using the QuikChange™ Site-Directed Mutagenesis Kit (Agilent Technologies, Inc., Santa Clara, Calif., USA). All plasmid inserts were verified by DNA sequencing. All HSP70 and DnaK variants were produced with a N-terminal His6-tag in the E. coli BL21 Star (DE3) strain (Invitrogen catalog number C6010-03). The resulting strains were grown at 37° C. in LB medium containing 50 μg/mL of carbenicillin (Sigma-Aldrich Co., St. Louis, Mo., USA). At an OD600 about 0.3 to about 0.5, protein expression was induced with 0.5 mM isopropyl-β-D-thiogalactopyranoside (IPTG), and cells were subsequently grown at 25° C. for about 16 h. Cells were collected by centrifugation and resuspended in the Bugbuster® Master Mix (EMD Millipore Chemicals catalog number 71456-4), supplemented with protease inhibitors, 1 mM diethiothreitol (DTT) and 20 mM imidazole. The His6-tagged fusion proteins were isolated on Ni^2+-chelating resins (Ni-NTA Superflow, Qiagen catalog number 30410) by standard procedures. When necessary, size-exclusion chromatography on a Superdex® 200 or a Superose® 6 10/300 GL columns (GE Healthcare) analytical column pre-equilibrated with 1× Dulbecco's Phosphate Buffered Saline (DPBS—Invitrogen 14190-136), 1 mM Tris-HCl (pH 7.4) or 10 mM Tris-HCl (pH 7) was used as the final purification step. The purified DnaK proteins were dialyzed thoroughly against 1× DPBS with 5 mM DTT at 4° C., for crystallization trials involving the small molecule inhibitor PET-16. For isothermal titration calorimetry studies, all HSP70 and DnaK variants were dialyzed extensively against the buffers as noted below under the section entitled “Isothermal Titration calorimetry Studies”. […]

ADP-HSP70 (WT, aa 1-641) = target: T2, ADP-HSP70 (WT, aa 1-641) (Homo sapiens, UniProt P0DMV8, E110D); experiment: ITC binding to ADP-bound full-length HSP70; conditions: ITC, wild-type full-length ADP-bound HSP70
T2 construct: Full-length recombinant proteins of HSP70 (aa 1-641) as well as DnaK (aa 1-638); His6 (N); made in house; host or cells: E. coli BL21 Star (DE3)
Description: The human stress-inducible HSP70 (residues 1-641 or 386-616 of SEQ ID NO: 2) and E. coli DnaK (residues 1-638, 389-607, or 393-507 of SEQ ID NO: 4) were cloned into the pET25 vector (EMD Millipore Chemicals, Inc., Billerica, Mass., USA) between the NdeI and XhoI restriction sites. The full-length HSP70 and DnaK mutants were constructed by PCR-based site-directed mutagenesis using the QuikChange™ Site-Directed Mutagenesis Kit (Agilent Technologies, Inc., Santa Clara, Calif., USA). All plasmid inserts were verified by DNA sequencing. All HSP70 and DnaK variants were produced with a N-terminal His6-tag in the E. coli BL21 Star (DE3) strain (Invitrogen catalog number C6010-03). The resulting strains were grown at 37° C. in LB medium containing 50 μg/mL of carbenicillin (Sigma-Aldrich Co., St. Louis, Mo., USA). At an OD600 about 0.3 to about 0.5, protein expression was induced with 0.5 mM isopropyl-β-D-thiogalactopyranoside (IPTG), and cells were subsequently grown at 25° C. for about 16 h. Cells were collected by centrifugation and resuspended in the Bugbuster® Master Mix (EMD Millipore Chemicals catalog number 71456-4), supplemented with protease inhibitors, 1 mM diethiothreitol (DTT) and 20 mM imidazole. The His6-tagged fusion proteins were isolated on Ni^2+-chelating resins (Ni-NTA Superflow, Qiagen catalog number 30410) by standard procedures. When necessary, size-exclusion chromatography on a Superdex® 200 or a Superose® 6 10/300 GL columns (GE Healthcare) analytical column pre-equilibrated with 1× Dulbecco's Phosphate Buffered Saline (DPBS—Invitrogen 14190-136), 1 mM Tris-HCl (pH 7.4) or 10 mM Tris-HCl (pH 7) was used as the final purification step. The purified DnaK proteins were dialyzed thoroughly against 1× DPBS with 5 mM DTT at 4° C., for crystallization trials involving the small molecule inhibitor PET-16. For isothermal titration calorimetry studies, all HSP70 and DnaK variants were dialyzed extensively against the buffers as noted below under the section entitled “Isothermal Titration calorimetry Studies”. The dialyzed proteins were subsequently microcentrifugated at 15,000×g for 5 min at 4° C. and aliquots of the soluble proteins were stored at −80° C.
(§1) All ITC experiments were performed using a MicroCal VP-ITC isothermal titration calorimeter (MicroCal). Both full-length HSP70 and DnaK proteins and DnaK (aa 393-507) proteins were prepared in 1 mM Tris-HCl (pH 7.4) buffer containing 3% dimethylsulfoxide (DMSO). The HSP70 (aa 386-616) protein was prepared in buffer containing 3% DMSO and 10 mM Tris-HCl, pH 7. The syringe was loaded with purified protein in either 1 mM Tris-HCl (pH 7.4) buffer containing 3% DMSO or 10 mM Tris-HCl (pH 7) buffer containing 3% DMSO. The sample cell of the calorimeter was loaded with PES, PET-16 or NRLLLTG (SEQ ID NO: 7) prepared in the same buffer. All solutions were degassed for 5 min.
The titrations involving the full-length purified proteins were performed at 25° C. with injection volumes of 12 μL and a spacing of 300 s. The titrations involving the purified HSP70 (aa 386-616) and DnaK (aa 393-507) were performed at 42° C. with injection volumes of 12 μL and a spacing of 300 s. Heat from the pre-injection was not used during fitting. The data were fit using a one-site binding model available in the Origin® ITC data analysis software (MicroCal Origin® V5.0, MicroCal Software, Northampton, Mass.). Error values obtained from the MicroCal Origin® V5.0 software were averaged and reported. […]

E. coli DH5α = experiment: Growth of E. coli DH5α at 43° C.; type: cell-based; conditions: 6 h at 43° C.
Protocol: FIGS. 2A-2D illustrate the cytotoxicity of PET-16 to human tumor cells and its inhibition on E. coli growth. FIG. 2A is a line graph with data obtained from MTT assays of human melanoma cell lines treated with the indicated concentrations of PES or PET-16 for 72 h. The corresponding cell survival is normalized to vehicle (DMSO) treatment. Average and standard deviation (s.d.) from three independent experiments are shown. FIG. 2B are bar graphs of human melanoma (A875) cells and nontransformed human (IMR90) fibroblasts that were treated with DMSO, 10 μM PES or 10 μM PET-16 for 24 h. […] FIG. 2C is a line graph illustrating the growth of E. coli DH5α treated with different concentrations of PES or PET-16 for 6 h at 43° C. Error bars represent the s.d. of four independent experiments. FIG. 2D is a bar graph illustrating the growth of E. coli DH5α treated with DMSO, 30 μM PET-16 or 30 μM TPP for 6 h at 43° C. Error bars represent the s.d. of four independent experiments.
FIGS. 9A-9H illustrate that PET-16 binds directly to ADP-bound HSP70 and is cytotoxic to human tumor cells. FIGS. 9A-9C are ITC assays of the interaction of PET-3C with purified human HSP70-ADP (A), human HSP70-ATP (B) and DnaK-ADP (C) proteins. The data are representative of three independent experiments. FIG. 9D is a line graph of an MTT assay of the human melanoma cell line 1205 Lu treated with the indicated concentrations of PET-16 (---) or PET-3C (-) for 72 h. The corresponding cell survival is normalized to the DMSO-treatment. Average and standard deviation (s.d.) from three independent experiments are shown. FIG. 9E is a line graph illustrating the growth of E. coli DH5α strain treated with different concentrations of PET-16 (black) or PET-3C (gray) for 6 h at 43° C. Error bars represent the s.d. of four independent experiments. FIG. 9F is a bar graph illustrating the growth of E. coli DH5α treated with DMSO, 30 μM PET-16, 30 μM PET-3C or 30 μM TPP for 6 h at 43° C. Error bars represent the s.d. of four independent experiments. […]

HSP70 (aa 386-616) = target: T3, HSP70 (aa 386-616) (Homo sapiens, UniProt P0DMV8); experiment: ITC binding to C-terminal domain of HSP70; conditions: in words
T3 construct: His6 (N); made in house; host or cells: E. coli BL21 Star (DE3)
Description: The human stress-inducible HSP70 (residues 1-641 or 386-616 of SEQ ID NO: 2) and E. coli DnaK (residues 1-638, 389-607, or 393-507 of SEQ ID NO: 4) were cloned into the pET25 vector (EMD Millipore Chemicals, Inc., Billerica, Mass., USA) between the NdeI and XhoI restriction sites. The full-length HSP70 and DnaK mutants were constructed by PCR-based site-directed mutagenesis using the QuikChange™ Site-Directed Mutagenesis Kit (Agilent Technologies, Inc., Santa Clara, Calif., USA). All plasmid inserts were verified by DNA sequencing. All HSP70 and DnaK variants were produced with a N-terminal His6-tag in the E. coli BL21 Star (DE3) strain (Invitrogen catalog number C6010-03). The resulting strains were grown at 37° C. in LB medium containing 50 μg/mL of carbenicillin (Sigma-Aldrich Co., St. Louis, Mo., USA). At an OD600 about 0.3 to about 0.5, protein expression was induced with 0.5 mM isopropyl-β-D-thiogalactopyranoside (IPTG), and cells were subsequently grown at 25° C. for about 16 h. Cells were collected by centrifugation and resuspended in the Bugbuster® Master Mix (EMD Millipore Chemicals catalog number 71456-4), supplemented with protease inhibitors, 1 mM diethiothreitol (DTT) and 20 mM imidazole. The His6-tagged fusion proteins were isolated on Ni^2+-chelating resins (Ni-NTA Superflow, Qiagen catalog number 30410) by standard procedures. […]

DnaK SBD = target: T4, DnaK SBD (Escherichia coli, UniProt P0A6Y8); experiment: ITC binding to DnaK SBD; set-up: species or system E. coli; conditions: in words
T4 construct: The titrations involving the purified HSP70 (aa 386-616) and DnaK (aa 393-507) were performed at 42° C; His6 (N); made in house; host or cells: E. coli BL21 Star (DE3)
Protocol: as §1
The titrations involving the full-length purified proteins were performed at 25° C. with injection volumes of 12 μL and a spacing of 300 s. The titrations involving the purified HSP70 (aa 386-616) and DnaK (aa 393-507) were performed at 42° C. with injection volumes of 12 μL and a spacing of 300 s. Heat from the pre-injection was not used during fitting. The data were fit using a one-site binding model available in the Origin® ITC data analysis software (MicroCal Origin® V5.0, MicroCal Software, Northampton, Mass.). Error values obtained from the MicroCal Origin® V5.0 software were averaged and reported.

tumor cells = experiment: Cytotoxic effect on tumor cells; type: cell-based; conditions: in words
Description: FIGS. 1A to 1G provide the PET-16 and analogs thereof. FIGS. 1A-1C provide the chemical structures of PES, Biotin-PES, and PES-Cl, respectively. The chemical names and the major functional groups are indicated. […] The chemical names are indicated. FIGS. 1E-1G are the chemical structures of PET-16, PET-3C and PET-DR, respectively. The chemical names and the major functional groups are indicated.

T2 sequence (P0DMV8 whole entry E110D, the tested form may be a part): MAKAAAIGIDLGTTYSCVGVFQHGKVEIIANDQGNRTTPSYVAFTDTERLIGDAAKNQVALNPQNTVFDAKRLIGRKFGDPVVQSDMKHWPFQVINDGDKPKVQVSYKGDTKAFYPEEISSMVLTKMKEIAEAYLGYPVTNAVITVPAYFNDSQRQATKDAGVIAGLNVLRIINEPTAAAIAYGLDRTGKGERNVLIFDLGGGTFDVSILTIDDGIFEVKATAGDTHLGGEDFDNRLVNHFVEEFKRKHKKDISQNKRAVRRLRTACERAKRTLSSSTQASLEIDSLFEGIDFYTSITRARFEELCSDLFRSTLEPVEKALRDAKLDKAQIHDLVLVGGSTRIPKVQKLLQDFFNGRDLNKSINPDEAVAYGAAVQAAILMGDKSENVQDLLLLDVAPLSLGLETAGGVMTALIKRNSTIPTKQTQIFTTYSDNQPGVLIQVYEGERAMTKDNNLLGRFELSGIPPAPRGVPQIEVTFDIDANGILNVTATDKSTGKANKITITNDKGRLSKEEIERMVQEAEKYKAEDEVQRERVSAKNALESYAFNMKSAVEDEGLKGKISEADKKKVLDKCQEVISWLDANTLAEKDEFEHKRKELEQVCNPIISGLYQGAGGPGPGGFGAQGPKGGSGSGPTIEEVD
T3 sequence (P0DMV8 386-616): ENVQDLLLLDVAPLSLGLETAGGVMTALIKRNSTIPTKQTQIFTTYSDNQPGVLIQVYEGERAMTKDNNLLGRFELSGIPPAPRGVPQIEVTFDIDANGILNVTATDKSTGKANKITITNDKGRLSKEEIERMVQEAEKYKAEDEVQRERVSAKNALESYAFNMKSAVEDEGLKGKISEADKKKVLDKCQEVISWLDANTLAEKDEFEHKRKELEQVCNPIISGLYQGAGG
T1 sequence (P0DMV8 whole entry E110D, the tested form may be a part): as the sequence (P0DMV8 whole entry E110D, the tested form may be a part) above
T4 sequence (P0A6Y8 393-507): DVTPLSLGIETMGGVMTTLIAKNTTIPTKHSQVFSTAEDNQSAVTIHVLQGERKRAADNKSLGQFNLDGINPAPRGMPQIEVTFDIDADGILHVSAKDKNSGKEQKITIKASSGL

## 2-(3-chlorophenyl) ethynesulfonamide [PES-Cl, reference compound]
[1]
  synergy with PLX4032 (Vemurafenib): did not synergize

## CC(C)C[C@H](NC(=O)[C@H](CC(C)C)NC(=O)[C@H](CCCNC(=N)N)NC(=O)[C@@H](N)CC(N)=O)C(=O)N[C@@H](CC(C)C)C(=O)N[C@H](C(=O)NCC(=O)O)[C@@H](C)O [NRLLLTG, reference compound]
ATP-HSP70 (WT)
  Kd: 1250 ± 15 µM
ADP-HSP70 (WT, aa 1-641)
  Kd: ~10 µM and 10 µM

## c1ccc(P(c2ccccc2)c2ccccc2)cc1 [TPP, triphenylphosphine]
E. coli DH5α
  effect on growth of E. coli: no negative effect
HSP70 (aa 386-616)
  binding to HSP70 SBD: does not bind
DnaK SBD
  binding to DnaK SBD: does not bind
Tumor cells
  cytotoxicity for tumor cells: little discernible effect
